Measurements as given in patent US10450314B2, “Pteridine derivatives as modulators of ROR gamma” (Boehringer Ingelheim International GmbH, priority 2015, dated 2019).

Tests used:
RORγ = target: T1, RORγ (Homo sapiens, UniProt P51449); test: RORγ Reporter Gene Assay (RGA), luciferase transactivation in transiently transfected HEK 293 cells; format: cell-based; conditions: HEK 293 cells cotransfected with pGL4.3 luc2P/GAL4UAS and pBIND Gal4DBD hRORC LBD; 20-24 h incubation
T1 construct: expressed in transfected cells; host or cells: HEK 293 cells, transiently cotransfected with pGL4.3 luc2P/GAL4UAS/Hygro reporter
T1 sequence (P51449 269-508 limits assumed): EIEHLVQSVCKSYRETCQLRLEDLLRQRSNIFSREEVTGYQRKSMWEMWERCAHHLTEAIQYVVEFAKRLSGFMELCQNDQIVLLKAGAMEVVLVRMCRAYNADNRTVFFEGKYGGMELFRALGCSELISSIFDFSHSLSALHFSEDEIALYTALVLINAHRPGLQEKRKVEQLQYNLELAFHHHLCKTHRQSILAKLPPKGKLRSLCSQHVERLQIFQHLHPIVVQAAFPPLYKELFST
Experimental: Reporter Gene Assay (RGA)
A nuclear receptor transactivation assay is performed to quantitate the ability of test compounds to inhibit RORγ transactivation of a luciferase reporter. A similar assay is described in: Khan et al., Bioorganic & Medicinal Chemistry Letters 23 (2013), 532-536. The system uses transiently transfected HEK 293 cells cotransfected with two plasmids (pGL4.3, luc2P/GAL4UAS/Hygro, and pBIND, Gal4DBD hRORC LBD1-3). The positive control is co-transiently transfected with both plasmids, and the negative control contains the pGL4.3 promoter sequence. Assays are assembled in 384 well plates where transiently transfected cells and test compound at varying concentrations are incubated for 20-24 h. The next day, assays plates are taken out and equilibrated at RT for 20-30 minutes. Bright-Glo™ Luciferase Assay System is used to detect Luciferase production. After addition of Bright GLO detection reagent, the plates are incubated at RT for 20 minutes. The plates are read on an Envision plate reader to measure luminescence signal. The RLU signal is converted to POC relative to control and blank wells.
Compound Dilution Buffer:
Bright Glo Luciferase Assay System: Promega #E2620
Thaw lysis buffer provided in kit, add 100 mL lysis buffer to substrate powder.

[1] = Human liver microsome (HLM) metabolic stability assay; format: in vitro ADME; conditions: human liver microsomes, 1 uM compound, 37° C., 60 min; % hepatic blood flow
Experimental: Assessment of Metabolic Stability
The 5 time point, high-throughput human liver microsome (HLM) metabolic stability assay is designed to determine in vitro compound metabolism. Compounds are incubated with HLMs at a concentration of 1 uM, at 37° C., for a total of 60 min. The percent of compound remaining at 5, 15, 30, and 60 min is used to calculate the t1/2 (min), CLint (mL/min/kg), CLh (mL/min/kg), and % Qh. The assay is based on a 96-well format and can accommodate up to 92 compounds per plate (n=1).
Using the 96-well multi-channel head, the Biomek FX, equipped with a Peltier heating block/shaker, is programmed to accomplish the following steps: • 1. Pipette 175 uL of 1.15 mg/mL microsomes into each of the 96 conical inserts (Analytical Sales and Products, catalog number 96PL05) that fit into the plate of the Peltier heating block/shaker (the incubation plate) • 2. Add 5 uL of compounds from the assay plate to the microsomes and shake the mixture at 600 rpm at 42.1° C. for 10 min (a setting of 42.1° C. on the Peltier is required for the samples to incubate at 37° C.) • 3. After 10 min, prompt the user to add the NADPH plate to the deck and add 20 uL from the NADPH plate to the incubation plate to start the reaction • 4. Add 215 uL of 100%, cold acetonitrile containing an internal standard(s) to a 0 minute, 5 minute, 15 minute, 30 minute, and 60 minute “quench” plate • 5. At 0 min, 5 min, 15 min, 30 min, and 60 min into the incubation, aspirate 12 uL from the incubation mixture and add it to the quench solution to stop the reaction • 6. Add 185 uL HPLC grade water to each well of the 0, 5, 15, 30 and 60 minute quench plates to dilute compounds to the appropriate concentration for the mass spectrometer
After all time points are collected, the quench plates are sealed with 96-well pierceable plate mats or heat sealing foil and centrifuged at 3000 rpm for 15 min to pellet the microsomes.
The plates are analyzed using LC/MS/MS with electron spray ionization (ESI) and the previously determined MRM transitions. The LC method includes the following parameters:
Using an Excel template in Activitybase, the peak areas corresponding to 5, 15, 30 and 60 min are compared to the peak area at 0 min to calculate the percent of remaining compound using the following equation:
Percent compound remaining=(AUC at Time t min/AUC at Time 0 min)×100 where t=0, 5, 15, 30 or 60 min.
Time (min) is plotted against the natural logarithm (Ln) of the percent compound remaining to determine the slope. The slope is used to calculate t1/2 (min) using the equation, t1/2=0.693/slope.
Clint, Intrinsic Clearance

Compound	IC50 (RORγ) [nM]	HLM (% Qh) [1] [% Qh]
CCS(=N)(=O)c1ccc(CNc2nc3c(C)nc(-c4c(C)ncnc4C4CC4)nc3n([C@@H](C)C3CC3)c2=O)cc1 (single isomer, unassigned) [Example 36a]	260	<24
CCS(=O)(=O)c1ccc(CNc2nc3c(C)nc(-c4c(OC)ncnc4C4CC4)nc3n(C(C)C)c2=O)nc1 [Example 77]	680	<24
CC[C@H](C)n1c(=O)c(NCc2ncc(S(=O)(=O)CC)cn2)nc2c(C)nc(-c3c(OC)ncnc3C3CC3)nc21 [Example 15]	150	<24
CC[C@@H](C)n1c(=O)c(NCc2ccc(S(=O)(=O)CC)cn2)nc2c(CO)nc(-c3c(OC)ncnc3C3CC3)nc21 [Example 1]	200	<24
CCS(=N)(=O)c1ccc(CNc2nc3c(C)nc(-c4c(C)ncnc4C4CC4)nc3n([C@@H](C)C(F)(F)F)c2=O)nc1 (single isomer, unassigned) [Example 102a]	535	<24
CC[C@H](C)n1c(=O)c(NCc2ccc(S(C)(=O)=O)cn2)nc2c(C)nc(-c3c(OC)ncnc3C3CC3)nc21 [Example 13]	99	<24
CC[C@@H](C)n1c(=O)c(NCc2ccc(S(=O)(=O)CC)cn2)nc2c(CO)nc(-c3c(C)ncnc3C3CC3)nc21 [Example 51]	230	<24
COc1ncnc(C2CC2)c1-c1nc(C)c2nc(NCc3ccc(S(C)(=O)=O)cn3)c(=O)n([C@@H](C)C(F)(F)F)c2n1 [Example 17]	130	39
CC[C@@H](C)n1c(=O)c(NCc2ccc(S(=O)(=O)CC)cn2)nc2c(C)nc(-c3c(OC)ncnc3C3CC3)nc21 [Example 86]	73	<24
CC[C@H](C)n1c(=O)c(NCc2ccc(S(=O)(=O)CC)cn2)nc2c(C)nc(-c3c(C)ncnc3C3CC3)nc21 [Example 60]	80	<24
Cc1ncnc(C2CC2)c1-c1nc(C)c2nc(NCc3ccc(S(N)(=O)=O)cn3)c(=O)n([C@@H](C)C(F)(F)F)c2n1 [Example 96]	280	<24
CC[C@@H](C)n1c(=O)c(NCC2CCN(S(C)(=O)=O)CC2)nc2c(C)nc(-c3c(C)ncnc3C3CC3)nc21 [Example 59]	98	78
COc1ncnc(C2CC2)c1-c1nc(C)c2nc(NCc3ccc(S(N)(=O)=O)nc3)c(=O)n([C@@H](C)C(F)(F)F)c2n1 [Example 97]	320	46
CCS(=O)(=O)c1ccc(CNc2nc3c(C)nc(-c4c(C)ncnc4C4CC4)nc3n([C@@H](C)C3CC3)c2=O)cn1 [Example 74]	77	<24
CC[C@H](C)n1c(=O)c(NCc2ccc(S(C)(=O)=O)cn2)nc2c(C)nc(-c3c(C)ncnc3C3CC3)nc21 [Example 14]	115	<24
CC[C@@H](C)n1c(=O)c(NCc2ccc(S(C)(=O)=O)cn2)nc2c(C)nc(-c3c(OC)ncnc3C3CC3)nc21 [Example 2]	110	<24
CCS(=O)(=O)c1ccc(CNc2nc3c(C)nc(-c4c(OC)ncnc4C4CC4)nc3n([C@@H](C)C3CC3)c2=O)cn1 [Example 66]	64	25
Cc1ncnc(C2CC2)c1-c1nc(C)c2nc(NCc3ccc(S(C)(=O)=O)cn3)c(=O)n([C@@H](C)C(F)(F)F)c2n1 [Example 18]	175	55
CC[C@H](C)n1c(=O)c(NCc2ccc(S(C)(=N)=O)cc2)nc2c(C)nc(-c3c(OC)ncnc3C3CC3)nc21 (stereo partly drawn) [Example 83]	250	32
CC[C@@H](C)n1c(=O)c(NCc2ccc(S(C)(=O)=O)cn2)nc2c(CF)nc(-c3c(C)ncnc3C3CC3)nc21 [Example 54]	225	41
Cc1ncnc(C2CC2)c1-c1nc(C)c2nc(NCc3ccc(S(C)(=N)=O)cn3)c(=O)n([C@@H](C)C(F)(F)F)c2n1 (single isomer, unassigned) [Example 106a]	1300	<24
CC[C@@H](C)n1c(=O)c(NCc2ccc(S(=O)(=O)CC)cn2)nc2c(C)nc(-c3c(C)ncnc3C3CC3)nc21 [Example 65]	135	<24
Cc1ncnc(C2CC2)c1-c1nc(C)c2nc(NCc3ccc(S(C)(=N)=O)cc3)c(=O)n([C@@H](C)C(F)(F)F)c2n1 (single isomer, unassigned) [Example 91b]	255	<24
CC[C@@H](C)n1c(=O)c(NCc2ccc(S(C)(=O)=O)cn2)nc2c(COC(C)=O)nc(-c3c(C)ncnc3C3CC3)nc21 [Example 47]	1050	56
CCS(=O)(=O)c1cnc(CNc2nc3c(C)nc(-c4c(OC)ncnc4C4CC4)nc3n([C@@H](C)C(F)(F)F)c2=O)nc1 [Example 22]	140	<24
CCS(=O)(=O)c1cnc(CNc2nc3c(C)nc(-c4c(C)ncnc4C4CC4)nc3n([C@@H](C)C(F)F)c2=O)nc1 [Example 94]	205	<24
CCS(=O)(=O)c1cnc(CNc2nc3c(C)nc(-c4c(OC)ncnc4C4CC4)nc3n([C@@H](C)C3CC3)c2=O)nc1 [Example 10]	97	27
CCS(=N)(=O)c1ccc(CNc2nc3c(C)nc(-c4c(C)ncnc4C4CC4)nc3n([C@@H](C)C(F)(F)F)c2=O)nc1 (single isomer, unassigned) [Example 102b]	640	<24
CC[C@H](C)n1c(=O)c(NCc2ccc(S(N)(=O)=O)cn2)nc2c(C)nc(-c3c(C)ncnc3C3CC3)nc21 [Example 85]	270	<24
CC[C@@H](C)n1c(=O)c(NCc2ccc(S(C)(=O)=O)nc2)nc2c(C)nc(-c3c(C)ncnc3C3CC3)nc21 [Example 72]	205	<24
